Measured values reported in patent publication US4464389A, “Esters of retinoic acid and pentaerythritol and monobenzal acetals thereof” (SRI International, priority 1982, dated 1984).

Experiments:
Ornithine Decarboxylase = test: Inhibition of induction of ornithine decarboxylase (ODC) by 12-O-tetradecanoylphorbol-13-acetate in mouse skin; format: in vivo; settings: topical, 1 hour before TPA (17 nmol)
Procedure: (§1) The ODC assay measures a compound's effect on the prevention of the induction of ODC. The tracheal organ culture assay measures a compound's ability to reverse keratinization.
The ODC assay is carried out as follows. Female Charles River CD-1 mice from Charles River Breeding Laboratories, Wilmington, Mass., are used (age 7 to 9 weeks). The dorsal hair of the mice is shaved 1 to 2 days before testing, and only mice showing no hair regrowth are used. A single dose of 12-O-tetradecanoylphorbol-13-acetate (TPA) (10.5 μg, 17 nmol) in 0.2 mL of acetone is applied topically to the back of each mouse. The test compound, at one of three dose levels (1.7, 17, and 170 nmol), dissolved in 0.2 mL of acetone is applied 1 hour before the TPA treatment to the test groups; the control group is treated with acetone alone. The mice are killed by cervical dislocation five hours after TPA treatment. Determinations are done in triplicate.
The epidermis is obtained from the sacrificed animals. To obtain sufficient material, the dorsal skins from 2 to 3 mice in each treatment group are pooled. The depilatory agent Nudit® (Helena Rubinstein, New York) is applied to the shaved area of the skin; after 5 minutes, it is washed off thoroughly with cold tap water. Then the skin is excised and plunged immediately into ice-cold water; it is then placed in a 55° C. water bath for 30 seconds and reimmersed in ice-cold water for at least another 30 seconds. The skin is placed epidermis side up on a cold plate, and the epidermis is scraped off with a razor blade. The pooled epidermal sheets are homogenized (Polytron PT-10 homogenizer) at 0° to 4° C. for 15-20 seconds in 50 mM sodium phosphate buffer (pH 7.2) containing 0.1 mM pyridoxal phosphate and 0.1 mM ethylenediaminetetraacetic acid (EDTA), at a volume of 1 mL/skin.
The supernatant fraction remaining after centrifugation of the homogenate at 10,000×g for 30 seconds at 0° C. is used for the enzyme assay. Enzyme activity is determined using the microassay for ODC as described by Verma and Boutwell to measure the release of ^14 CO2 from DL-[1-^14 C]-ornithine (58 mCi/mmol) after incubation with the 10,000×g supernatant. The incubations are carried out by decanting, with a Pasteur pipette, 100 μL of the supernatant containing 100 to 120 μg of protein into two or three 15-mL Corex tubes in a shaking water bath at 37° C. The assay mixture in the tubes consists of 50 μL of 100 mM sodium phosphate buffer (pH 7.2), 10 μL of 4 mM pyridoxal phosphate, 40 μL of 25 mM dithiothreitol, and 1 μL of 0.1M EDTA. The center wells in the tubes are filled with 200 μL of a 2:1 solution (v/v) of ethanolamine:2-methoxyethanol. The reaction is started by adding 50 μL of substrate (0.5 μCi of DL-[1-^14 C]-ornithine in 2 mM cold ornithine) at 1-minute intervals by injection to each of the stoppered tubes. Incubations are routinely carried out at 37° C. for 30 to 60 minutes. The reaction is stopped by addition of 0.5 ml of 2M citric acid, and incubation is continued for an additional hour without heating to ensure complete absorption of ^14 CO2.
Radioactivity is measured using a toluene-based scintillant (4 g of PPO and 50 mg of POPOP/L of toluene) in a Beckman LS-250 liquid scintillation counter. Enzyme activity is determined in triplicate and expressed as nanomoles of CO2 released in 30 minutes per milligram of protein. Enzyme activity is linear for the protein concentration used. The protein concentrations of the epidermal extracts are determined by the Lowry procedure, using bovine serum albumin as the standard.

[1] = system: Hamster Tracheal Organ Culture (keratinization); test: Reversal of keratinization in hamster tracheal organ culture; format: cell-based
Procedure: as §1
The tracheal organ culture assay is carried out as follows. Tracheas are taken from hamsters that are in very early stages of vitamin A deficiency and placed in organ culture. At the time of culture, the animals are still gaining weight; the tracheal epithelium is generally low columnar or cuboidal, with only occasional patches of squamous metaplasia. Each trachea is opened from the larynx to the carina along the membranous dorsal wall and cultured in a serum-free medium (CMRL-1066; with crystalline bovine insulin, 0.1 μg/ml; hydrocortisone hemisuccinate, 0.1 μg/ml; glutamine, 2 mM; penicillin, 100 units/ml; and streptomycin,100 μg/ml, added). Cultures are gassed with 50% oxygen, 45% nitrogen, and 5% CO2. The culture dishes are rocked at 35.5-36.0 degrees to allow the tracheas contact with both gas and medium. All tracheas are grown in medium containing no retinoid for the first 3 days. At the end of 3 days, some tracheas are harvested; almost all of these tracheas have significant squamous metaplasia, and approximately 60% have keratinized lesions. The remaining tracheas are then divided into different groups which are treated with either: (1) retinoid dissolved in dimethylsulfoxide (final concentration of DMSO in culture medium is never greater than 0.1%) or (2) an equivalent amount of DMSO alone. Culture medium is changed three times a week, and all of the remaining tracheas are harvested at the end of 10 days in culture. Tracheas are fixed in 10% buffered formalin and embedded in paraffin. Cross sections of five micrometers are made through the mid-portion, stained with hematoxylin and eosin, and then scored with a microscope for the presence of keratin and keratohyaline granules, both of which are found in approximately 90% of control cultures that receive no retinoid for the entire 10 day culture period.

Row | Structure (SMILES) | Inhibition of Induction of Ornithine Decarboxylase by TPA, % Inhibition of Control (Ornithine Decarboxylase; Dose 1.7 nmol) [%] | Inhibition of Induction of Ornithine Decarboxylase by TPA, % Inhibition of Control (Ornithine Decarboxylase; Dose 17 nmol) [%] | Reversal of Keratinization, Active/Total Cultures ([1]; Conc 10^-8 M) | Reversal of Keratinization, Active/Total Cultures (%) ([1]; Conc 10^-8 M) | Reversal of Keratinization, Active/Total Cultures ([1]; Conc 10^-9 M) | Reversal of Keratinization, Active/Total Cultures (%) ([1]; Conc 10^-9 M) | Reversal of Keratinization, Active/Total Cultures ([1]; Conc 10^-10 M) | Reversal of Keratinization, Active/Total Cultures (%) ([1]; Conc 10^-10 M) | Reversal of Keratinization, Active/Total Cultures ([1]; Conc 10^-11 M) | Reversal of Keratinization, Active/Total Cultures (%) ([1]; Conc 10^-11 M)
1 | CC1=C(/C=C/C(C)=C/C=C/C(C)=C/C(=O)OCC(CO)(CO)CO)C(C)(C)CCC1 [Example 2, Pentaerythritol Monoretinoate] | 35 | 43 | 13/13 | 100 | 15/15 | 100 | 18/25 | 72 | 5/11 | 45
2 | CC1=C(/C=C/C(C)=C/C=C/C(C)=C/C(=O)OC[C@]2(CO)CO[C@@H](c3ccccc3)OC2)C(C)(C)CCC1 [Example 1 (Isomer (2)), (E)-2α-Phenyl-5α-hydroxymethyl-5β-retinoyloxymethyl-1,3-dioxane] | 40 | 49 | 13/13 | 100 | 17/18 | 94 | 9/18 | 50 | 2/6 | 33
3 | CC1=C(/C=C/C(C)=C/C=C/C(C)=C/C(=O)OC[C@]2(CO)CO[C@H](c3ccccc3)OC2)C(C)(C)CCC1 [Example 1 (Isomer (3)), (E)-2α-Phenyl-5β-hydroxymethyl-5α-retinoyloxymethyl-1,3-dioxane] | 47 | 57 | 13/13 | 100 | 18/18 | 100 | 7/19 | 37 | 2/6 | 33
